{"source": "patent US20190282692A1", "about": "“SELECTIVE LOCAL INHIBITION OF TNFR1-MEDIATED FUNCTIONS AT THE SITE OF ANTIGEN/ALLERGEN PRESENTATION” (priority 2012, published 2019)", "key": {"[1]": {"tested_on": "isolated rat cardiomyocytes", "settings": "cited from earlier work; for reproduction of the effects of in vivo NAC treatment (glutathione repletion, unmasking of TNFR2-mediated effects): 50 μmol/L; for protection against deleterious effects of TNF-alpha on contraction: preincubation 2-3 hours, 50 μM GSM or exogenously added NAC, cardiomyocytes from control rats"}, "[2]": {"tested_on": "late phase asthmatic response to allergen challenge", "settings": "cited from earlier work"}, "[3]": {"tested_on": "allergen-induced airways hyper-responsiveness", "settings": "cited from earlier work"}, "[4]": {"tested_on": "purified tonsillar B cells", "settings": "dose-dependent, significant with 0.5 mM, maximal with 20 mM NAC, 14 days; cited from earlier work"}, "[5]": {"settings": "1800 mg/day oral, one year, added to standard therapy; cited from earlier work"}, "[6]": {"settings": "600 mg to 1000 mg NAC three times daily orally, 4 weeks; cited from earlier work"}, "[7]": {"settings": "cited from earlier work"}, "[8]": {"tested_on": "purified tonsillar B cells", "settings": "20 mM NAC; cited from earlier work"}, "[9]": {"tested_on": "purified peripheral blood T cells", "settings": "20 mM NAC, Con A 10 μg/ml; cited from earlier work"}, "[10]": {"tested_on": "purified peripheral blood T cells", "settings": "cited from earlier work"}, "[11]": {"tested_on": "left ventricle", "settings": "3-day NAC treatment 120 mg/kg/day, 2-month post-myocardial infarction rats; cited from earlier work"}, "[12]": {"settings": "8 days, cited from earlier work"}, "[13]": {"tested_on": "T cells purified from human peripheral blood", "settings": "10 mM NAC, after two passages; cited from earlier work"}, "[14]": {"tested_on": "T cells purified from human peripheral blood", "settings": "20 mM NAC, Con A 2.5 μg/ml, 40 hours; cited from earlier work"}, "[15]": {"tested_on": "resting T cells", "settings": "resting T cells from seven donors, 3 day period, NAC 1 mM to 20 mM; cited from earlier work"}, "[16]": {"tested_on": "C3 convertase", "settings": "cited from earlier work"}, "[17]": {"tested_on": "TNF", "format": "in vivo, human", "settings": "for side effects of anti-TNF treatment in the patient: one patient with ankylosing spondylitis; for development of allergen-specific sIgG4 during specific immunotherapy: one vespid venom-allergic patient, SIT 2003-2009", "text": "Case report from the Allergy Center of the Technical University of Munich (TUM), Germany. A patient (at the first visit in July 2003) with systemic vespid venom allergy was under anti-TNF therapy with the soluble TNF receptor etanercept (Enbrel®) for ankolysing spondylitis since July 2002 (see FIG. 9). In July/2003, the patient experienced a mild to moderate anaphylactic reaction (grade 1-2 according to Ring and Messmer) with generalized urticaria, subjective breathing problems and dizziness after a wasp sting.\nNo sIgE was detectable against Ves v 2 and Ves v 3.\nSimilar results were also obtained in the ELISA analysis, where sIgG4 levels were detectable already in 2003 before SIT mainly against Ves v 1 and Ves v 5, which decreased slightly over time during SIT.\nDiscussion. […] Even amongst the group of SIT therapy failures/non-responders, we routinely observed an increase of sIgG4 levels to at least one allergen. Thus, this patient was the first and only one ever without any increase in sIgG4 to any of the vespid venom allergens. […] To our knowledge this was the only patient worldwide that received immunotherapy under anti-TNF inhibition treatment. Since there are several lines of evidence that TNFR2-mediated signaling is essential for the induction of tolerance, inhibition of TNFR2 appears to be responsible for the inhibitory effect of anti-TNF-alpha therapy on the efficacy of specific immunotherapy."}, "[18]": {"tested_on": "TNFR2-mediated activation of NF-kappa B", "settings": "high concentrations; cited from earlier work"}, "[19]": {"tested_on": "TNFR1-mediated activation of NF-kappa B", "settings": "cited from earlier work"}, "[20]": {"settings": "cited from earlier work", "remark": "listed apart in the source"}, "[21]": {"target": "T1, TNF-alpha (Mus musculus, UniProt P06804)", "T1 construct": "host or cells: mouse, in vivo", "T1 sequence (P06804 80-235 limits assumed)": "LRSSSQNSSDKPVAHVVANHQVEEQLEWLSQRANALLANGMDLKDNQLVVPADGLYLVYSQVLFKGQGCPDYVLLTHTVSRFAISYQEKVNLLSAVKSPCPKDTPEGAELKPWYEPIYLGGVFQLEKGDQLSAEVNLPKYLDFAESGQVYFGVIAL", "settings": "without inhibiting Teff activation; cited from earlier work"}, "[22]": {"settings": "in vivo; cited from earlier work"}, "[23]": {"tested_on": "NF-kappa B translocation", "settings": "read-out: concentration for 50% inhibition of NF-kappa B translocation; cited from earlier work"}, "[24]": {"tested_on": "IL-4 gene transcription", "settings": "read-out: concentration for 50% inhibition of IL-4 gene transcription; cited from earlier work"}, "[25]": {"tested_on": "CD4+ T cells purified from human peripheral blood", "settings": "cited from earlier work"}}, "note": "Values joined by “and” are separate entries in the source; they are usually repeats but may differ in a detail not shown here. Equal values may be shown once.", "data": [{"compound": "N[C@@H](CCC(=O)N[C@@H](CS)C(=O)NCC(=O)O)C(=O)O", "note": "[GSH, glutathione]", "values": [{"measurement": "reproduction of the effects of in vivo NAC treatment", "setting": "[1]; incubation 2-3 hours, 10 mmol/L", "result": "could not reproduce the effects of in vivo NAC treatment"}]}, {"compound": "IL-4 (R121D/Y124D)", "values": [{"measurement": "course of late asthmatic response after experimental allergen challenge", "setting": "[2]; asthmatic patients", "result": "positively affect"}, {"measurement": "adverse events", "setting": "[2]; subcutaneous injection up to 30 mg for up to 13 weeks or inhalation up to 60 mg for up to 4 weeks", "result": "few adverse events"}, {"measurement": "cutaneous wheal response and circulating allergen-specific IgE", "setting": "[3]; subcutaneous administration for 6 weeks or more", "result": "reduced"}, {"measurement": "allergen-induced airways hyper-responsiveness", "setting": "[3]; subcutaneously or via nebulization", "result": "protect allergic cynomolgus monkeys from allergen-induced airways hyper-responsiveness"}]}, {"compound": "CC(=O)N[C@@H](CS)C(=O)O", "note": "[NAC, N-acetyl-L-cysteine]", "values": [{"measurement": "IgE production by B cells", "setting": "[4]", "result": "decreased"}, {"measurement": "IgG4 production by B cells", "setting": "[4]", "result": "decreased"}, {"measurement": "primary end points including vital capacity", "setting": "[5]", "result": "better"}, {"measurement": "GSH level in blood neutrophils, airway neutrophil count and elastase activity", "setting": "[6]", "result": "effective in augmenting the GSH level in blood neutrophils and decreasing the airway neutrophil count and elastase activity"}, {"measurement": "median tmax", "setting": "[7]; human, in vivo", "result": 1.0, "unit": "h"}, {"measurement": "highest non-toxic dose", "setting": "[7]; in most of the subjects", "result": 800, "unit": "mg/m^2/day"}, {"measurement": "plasma t1/2", "setting": "[7]; monoexponential plasma decay", "result": 2.4, "unit": "h"}, {"measurement": "increase in B cell proliferation", "setting": "[8]", "result": "at least 5 fold"}, {"measurement": "increase in T cell proliferation", "setting": "[9]", "result": "approximately 4 fold"}, {"measurement": "IFNγ production by T cells", "setting": "[10]; 0.5-20 mM NAC", "result": "not affected"}, {"measurement": "IL-5 production by T cells", "setting": "[10]; 0.5-20 mM NAC", "result": "not affected"}, {"measurement": "IL-4 production by T cells", "setting": "[10]; maximal at 20 mM NAC", "result": "decreased in a dose-dependent manner"}, {"measurement": "IL-2 production by T cells", "setting": "[10]; up to 5 mM NAC", "result": "enhanced"}, {"measurement": "reproduction of the effects of in vivo NAC treatment (glutathione repletion, unmasking of TNFR2-mediated effects)", "setting": "[1]; incubation 2-3 hours", "result": "could not reproduce the effects of in vivo NAC treatment"}, {"measurement": "protection against deleterious effects of TNF-alpha on contraction", "setting": "[1]", "result": "not protected"}, {"measurement": "GSH content of the left ventricle, % of control level in sham rats", "setting": "[11]", "result": 75, "unit": "%"}, {"measurement": "decrease of ovalbumin-specific IgE", "setting": "[12]; drinking water 0.5 g/liter NAC", "result": "~30", "unit": "%"}, {"measurement": "decrease of ovalbumin-specific IgG1", "setting": "[12]; drinking water 0.5 g/liter NAC", "result": "~30", "unit": "%"}, {"measurement": "synthesis of other Ig isotypes", "setting": "[12]; drinking water 1 g NAC/liter", "result": "not significantly affected"}, {"measurement": "IgE and IgG1 antibody responses to ovalbumin", "setting": "[12]; water containing 0.5-2.0 g/l NAC, 1 μg ovalbumin on aluminum hydroxide i.p.", "result": "decreased"}, {"measurement": "stimulation of growth of peripheral blood T cell cultures", "setting": "[13]", "result": "4-6 fold"}, {"measurement": "enhancement of IL-2 production by T cells", "setting": "[14]", "result": "approximately 1.5 fold"}, {"measurement": "cytotoxicity", "setting": "[15]", "result": "nontoxic"}]}, {"compound": "hC3: human complement component C3", "values": [{"measurement": "half-life of C3 convertase", "setting": "[16]", "result": 1.5, "unit": "min"}]}, {"compound": "infliximab", "values": [{"measurement": "side effects of anti-TNF treatment in the patient", "setting": "[17]", "result": "without major side effects"}, {"measurement": "development of allergen-specific sIgG4 during specific immunotherapy", "setting": "[17]", "result": "interferes with the development of allergen-specific sIgG4"}]}, {"compound": "O=C([O-])c1ccccc1O.[Na+]", "note": "[SA, sodium salicylate]", "values": [{"measurement": "inhibition of TNFR2-mediated activation of NF-kappa B", "setting": "[18]", "result": "but not TNFR2-mediated activation of NF-kappa B"}, {"measurement": "salicylate dose required for inhibition of TNFR1-mediated activation of NF-kappa B", "setting": "[19]", "result": "10 to 20", "unit": "mM"}]}, {"compound": "CSC[C@H](NC(=O)CC[C@H](N)C(=O)O)C(=O)NCC(=O)O", "note": "[GSM, S-Methylglutathione]", "values": [{"measurement": "solubility in water", "setting": "[20]", "result": "2.61 g/liter and 8.1 mM"}, {"measurement": "reproduction of the effects of in vivo NAC treatment (glutathione repletion, unmasking of TNFR2-mediated effects)", "setting": "[1]; incubation 2-3 hours", "result": "reproduce the effects of in vivo NAC treatment"}, {"measurement": "protection against deleterious effects of TNF-alpha on contraction", "setting": "[1]", "result": "protected against the deleterious effects of TNF-alpha on contraction"}]}, {"compound": "etanercept", "values": [{"measurement": "Teff-mediated Treg boost", "setting": "[21]", "result": "significantly reduced the Teff-mediated Treg boost"}, {"measurement": "side effects of anti-TNF treatment in the patient", "setting": "[17]", "result": "increasing iritis symptoms"}, {"measurement": "development of allergen-specific sIgG4 during specific immunotherapy", "setting": "[17]", "result": "interferes with the development of allergen-specific sIgG4"}]}, {"compound": "O=C(O)c1ccccc1O", "note": "[salicylate]", "values": [{"measurement": "level at which tinnitus may occasionally occur", "setting": "[22]", "result": "≥ 95", "unit": "µg/mL"}]}, {"compound": "CC(=O)Oc1ccccc1C(=O)O", "note": "[ASA, acetylsalicylic acid]", "values": [{"measurement": "IC50", "setting": "[23]", "result": "~3000", "unit": "µM"}, {"measurement": "IC50", "setting": "[24]", "result": "~1000", "unit": "µM"}, {"measurement": "inhibition of IL-4 secretion", "setting": "[25]; 1 mM ASA", "result": 47, "unit": "%"}, {"measurement": "production of IFNγ", "setting": "[25]; ASA 0.1 mM-3 mM", "result": "did not affect"}, {"measurement": "production of IL-2", "setting": "[25]; ASA 0.1 mM-3 mM", "result": "did not affect"}, {"measurement": "production of IL-13", "setting": "[25]; ASA 0.1 mM-3 mM", "result": "did not affect"}]}]}
